Data published in patent US20100087424A1, “TRICYCLIC NITROGEN CONTAINING HETEROCYCLES AS ANTIBACTERIAL AGENTS” (Glaxo Group Limited, priority 2007, published 2010).
Structures can show the parent of a compound that is named as a salt.

Each molecule was assayed on Mycobacterium tuberculosis H37Rv (assay: Mycobacterium tuberculosis H37Rv Inhibition Assay (resazurin fluorescence)). Conditions: ATCC 25618 / H37Rv, read-out: MIC value, H37Rv strain (ATCC25618), Middlebrook 7H9+ADC, six days at 37° C., resazurin read after 48 hours.
Type: cell-based
For `O=c1ccc2ccc(F)c3c2n1[C@H](CN1CC[C@H](NCc2cc4c(cn2)OCCO4)[C@H](O)C1)CO3` [Example 20, (3R)-3-({(3R,4S)-4-[(2,3-Dihydro[1,4]dioxino[2,3-c]pyridin-7-ylmethyl)amino]-3-hydroxy-1-piperidinyl}methyl)-10-fluoro-2,3-dihydro-5H-[1,4]oxazino[2,3,4-ij]quinolin-5-one dihydrochloride], the MIC was ≤ 2.8 µg/mL. For `O=C(O)c1ccccc1.O=c1ccc2ncc(F)c3c2n1[C@H](CN1CCC(NCc2cc4c(nn2)OCCS4)CC1)CO3` [Example 48, (6R)-6-({4-[(6,7-dihydro[1,4]oxathiino[2,3-c]pyridazin-3-ylmethyl)amino]-1-piperidinyl}methyl)-3-fluoro-5,6-dihydro-8H-[1,4]oxazino[2,3,4-de]-1,5-naphthyridin-8-one benzoate], the MIC was ≤ 2.8 µg/mL. With `O=c1ccc2ncc(F)c3c2n1[C@H](CN1CC[C@H](NCc2cc4c(cn2)OCCO4)[C@H](O)C1)CC3` [Example 30, 6-({(3R,4S)-4-[(2,3-dihydro[1,4]dioxino[2,3-c]pyridin-7-ylmethyl)amino]-3-hydroxy-1-piperidinyl}methyl)-3-fluoro-5,6-dihydro-4H,8H-pyrido[3,2,1-de]-1,5-naphthyridin-8-one dihydrochloride] the MIC was ≤ 2.8 µg/mL.
